Measured values as given in ChEMBL document CHEMBL3808342, “Discovery and optimization of a novel series of highly CNS penetrant M4 PAMs based on a 5,6-dimethyl-4-(piperidin-1-yl)thieno[2,3-d]pyrimidine core” (Bioorg Med Chem Lett, 2016).

Legend:
[1] = Ratio of brain to plasma partition coefficient in Sprague-Dawley rat at 0.2 to 0.25 mg/kg, iv administered as cassette dose after 0.25 hrs; assay type: ADME, organism-based; conditions: for Kp: brain, 0.25 h; for Kp at 0.25 h: Sprague-Dawley, brain and plasma
[2] = biological target: T1, Muscarinic acetylcholine receptor M5 (Homo sapiens, UniProt P08912); test: Positive allosteric modulation of human M5 receptor expressed in CHOK1 cells by calcium mobilization assay; assay type: functional, cell-based, CHO-K1
T1 sequence (P08912 whole entry): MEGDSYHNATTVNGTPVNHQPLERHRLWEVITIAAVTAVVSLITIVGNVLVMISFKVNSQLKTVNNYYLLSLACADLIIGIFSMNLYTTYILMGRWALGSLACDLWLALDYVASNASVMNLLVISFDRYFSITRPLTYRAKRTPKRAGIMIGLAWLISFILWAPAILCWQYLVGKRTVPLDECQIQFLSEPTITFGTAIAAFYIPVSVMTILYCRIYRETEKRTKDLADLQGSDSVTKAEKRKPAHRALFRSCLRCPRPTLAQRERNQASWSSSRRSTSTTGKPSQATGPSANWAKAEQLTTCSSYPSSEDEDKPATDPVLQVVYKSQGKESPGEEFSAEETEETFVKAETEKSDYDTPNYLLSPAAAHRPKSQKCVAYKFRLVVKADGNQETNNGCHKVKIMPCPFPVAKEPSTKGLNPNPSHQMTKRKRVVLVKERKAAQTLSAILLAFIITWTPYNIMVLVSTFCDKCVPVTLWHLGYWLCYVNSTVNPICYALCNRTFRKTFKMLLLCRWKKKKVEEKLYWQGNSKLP

Plasma = test: (§1) Fraction unbound in rat plasma; assay type: ADME, cell-free
[3] = biological target: T2, Muscarinic acetylcholine receptor M4 (Rattus norvegicus) (UniProt P08485); test: Positive allosteric modulation of rat M4 receptor expressed in CHO cells coexpressing Gqi5 by calcium mobilization assay relative to acetylcholine; assay type: functional, cell-based
T2 sequence (whole entry): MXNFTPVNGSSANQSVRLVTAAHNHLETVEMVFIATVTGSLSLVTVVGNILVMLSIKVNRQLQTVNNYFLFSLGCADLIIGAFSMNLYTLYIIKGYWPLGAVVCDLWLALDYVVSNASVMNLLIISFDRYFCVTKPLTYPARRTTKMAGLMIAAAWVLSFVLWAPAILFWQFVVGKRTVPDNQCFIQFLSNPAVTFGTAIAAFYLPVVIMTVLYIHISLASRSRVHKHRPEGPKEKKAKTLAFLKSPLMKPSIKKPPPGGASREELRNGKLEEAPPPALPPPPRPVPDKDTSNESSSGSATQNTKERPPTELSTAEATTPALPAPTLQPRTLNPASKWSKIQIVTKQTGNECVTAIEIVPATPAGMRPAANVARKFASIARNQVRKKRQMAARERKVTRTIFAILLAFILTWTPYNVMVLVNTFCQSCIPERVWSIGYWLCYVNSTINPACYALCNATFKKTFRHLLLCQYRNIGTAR

[4] = biological target: T3, Muscarinic acetylcholine receptor M4 (Homo sapiens, UniProt P08173); test: Positive allosteric modulation of human M4 receptor expressed in CHO cells coexpressing Gqi5 by calcium mobilization assay; assay type: functional, cell-based; conditions: read-out: EC50
T3 sequence (P08173 whole entry): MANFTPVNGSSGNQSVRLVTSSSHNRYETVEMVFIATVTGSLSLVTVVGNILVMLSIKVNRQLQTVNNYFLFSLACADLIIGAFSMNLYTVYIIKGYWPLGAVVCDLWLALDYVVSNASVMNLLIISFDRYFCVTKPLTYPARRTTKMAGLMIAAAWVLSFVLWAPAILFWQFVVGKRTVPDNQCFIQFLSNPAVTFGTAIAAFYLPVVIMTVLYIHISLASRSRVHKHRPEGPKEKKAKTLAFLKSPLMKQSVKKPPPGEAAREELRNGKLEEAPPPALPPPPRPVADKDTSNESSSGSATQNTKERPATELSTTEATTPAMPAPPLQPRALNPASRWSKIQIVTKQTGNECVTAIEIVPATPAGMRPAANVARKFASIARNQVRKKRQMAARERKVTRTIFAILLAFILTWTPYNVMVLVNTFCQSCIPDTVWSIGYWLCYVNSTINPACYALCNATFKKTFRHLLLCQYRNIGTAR

[5] = biological target: T4, Muscarinic acetylcholine receptor M4 (Rattus norvegicus, UniProt P08485); test: Positive allosteric modulation of rat M4 receptor expressed in CHO cells coexpressing Gqi5 by calcium mobilization assay; assay type: functional, cell-based
T4 sequence (P08485 whole entry): T2 sequence (whole entry)

[6] = Ratio of unbound brain-to-plasma concentration in Sprague-Dawley rat at 0.2 to 0.25 mg/kg, iv administered as cassette dose after 0.25 hrs; assay type: ADME, organism-based
[7] = biological target: T5, Muscarinic acetylcholine receptor M2 (Homo sapiens, UniProt P08172); test: Positive allosteric modulation of human M2
T5 sequence (P08172 whole entry): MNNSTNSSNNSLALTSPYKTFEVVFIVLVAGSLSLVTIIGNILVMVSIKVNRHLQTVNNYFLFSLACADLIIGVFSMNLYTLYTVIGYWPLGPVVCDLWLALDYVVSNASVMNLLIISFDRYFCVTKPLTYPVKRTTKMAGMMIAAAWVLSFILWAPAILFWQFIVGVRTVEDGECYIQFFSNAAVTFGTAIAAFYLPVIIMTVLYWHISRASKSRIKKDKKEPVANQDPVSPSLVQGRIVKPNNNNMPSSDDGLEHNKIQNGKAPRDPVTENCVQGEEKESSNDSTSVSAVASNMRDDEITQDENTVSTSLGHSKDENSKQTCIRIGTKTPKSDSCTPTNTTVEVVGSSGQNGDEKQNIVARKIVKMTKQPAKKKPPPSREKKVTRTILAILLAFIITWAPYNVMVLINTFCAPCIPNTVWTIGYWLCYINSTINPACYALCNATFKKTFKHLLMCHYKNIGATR

[8] = biological target: T6, Muscarinic acetylcholine receptor M4 (Homo sapiens) (UniProt P08173); test: Positive allosteric modulation of human M4 receptor expressed in CHO cells coexpressing Gqi5 by calcium mobilization assay relative to acetylcholine; assay type: functional, cell-based
T6 sequence (whole entry): T3 sequence (P08173 whole entry)

[9] = biological target: T7, Muscarinic acetylcholine receptor M1 (Homo sapiens, UniProt P11229); test: Positive allosteric modulation of human M1 receptor expressed in CHOK1 cells by calcium mobilization assay
T7 sequence (P11229 whole entry): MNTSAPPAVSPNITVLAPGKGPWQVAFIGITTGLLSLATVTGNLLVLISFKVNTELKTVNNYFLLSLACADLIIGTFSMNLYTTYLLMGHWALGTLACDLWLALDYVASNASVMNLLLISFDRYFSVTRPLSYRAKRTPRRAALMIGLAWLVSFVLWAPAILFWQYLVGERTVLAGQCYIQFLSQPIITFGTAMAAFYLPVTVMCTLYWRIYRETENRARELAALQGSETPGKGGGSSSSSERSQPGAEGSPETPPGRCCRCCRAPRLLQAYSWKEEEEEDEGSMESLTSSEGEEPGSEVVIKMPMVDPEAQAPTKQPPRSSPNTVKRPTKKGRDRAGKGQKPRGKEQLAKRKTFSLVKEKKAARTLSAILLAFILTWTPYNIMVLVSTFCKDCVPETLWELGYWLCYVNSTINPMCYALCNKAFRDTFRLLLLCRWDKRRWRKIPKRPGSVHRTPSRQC

[10] = Fraction unbound in human plasma; assay type: ADME, cell-free
Brain = test: Fraction unbound in rat brain homogenate; assay type: ADME, tissue-based
[11] = biological target: Muscarinic acetylcholine receptor M3 (Homo sapiens, UniProt P20309); test: Positive allosteric modulation of human M3
Chain of Muscarinic acetylcholine receptor M3 (P20309 whole entry): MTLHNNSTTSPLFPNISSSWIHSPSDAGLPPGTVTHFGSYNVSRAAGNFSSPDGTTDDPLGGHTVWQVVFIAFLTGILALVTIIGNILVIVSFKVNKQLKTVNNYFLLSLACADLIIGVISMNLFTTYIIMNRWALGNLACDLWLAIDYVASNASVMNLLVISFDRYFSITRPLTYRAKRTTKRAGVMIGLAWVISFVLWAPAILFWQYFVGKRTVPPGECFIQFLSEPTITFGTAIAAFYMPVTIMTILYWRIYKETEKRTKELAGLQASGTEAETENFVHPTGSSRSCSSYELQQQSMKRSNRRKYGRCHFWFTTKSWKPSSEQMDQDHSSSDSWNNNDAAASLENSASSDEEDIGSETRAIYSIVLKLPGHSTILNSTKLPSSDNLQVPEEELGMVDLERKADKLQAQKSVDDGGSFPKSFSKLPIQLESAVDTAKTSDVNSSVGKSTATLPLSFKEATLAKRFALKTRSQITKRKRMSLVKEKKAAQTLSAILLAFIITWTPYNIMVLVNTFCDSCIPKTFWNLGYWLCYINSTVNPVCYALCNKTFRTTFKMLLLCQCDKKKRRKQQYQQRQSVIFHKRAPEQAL

[12] = Drug metabolism in human hepatic microsomes assessed as compound oxidation; assay type: ADME, Liver, Microsome
[13] = Drug metabolism in rat hepatic microsomes assessed as hydroxylation of 5,6-dimethyl moiety; assay type: ADME, Liver, Microsome
[14] = as §1; assay type: ADME, cell-free
[15] = biological target: T6, Muscarinic acetylcholine receptor M4 (Homo sapiens); test: Antagonist activity at human M4 receptor expressed in CHO cells coexpressing Gqi5 assessed as acetylcholine-induced calcium mobilization; assay type: functional, cell-based; set-up: scale not given: the % may be the effect or the level left
[16] = biological target: T3, Muscarinic acetylcholine receptor M4; test: Antagonist activity at human M4 receptor expressed in CHO cells coexpressing Gqi5 by calcium mobilization assay; assay type: functional, cell-based

Row | SMILES | Kp [1] | EC50 [4] | K(p,uu,brain) [6] | %max [8] | also measured
1 | Cc1ccc(OC2CCN(c3ncnc4ccc(F)cc34)CC2)cn1 | 11.1 | 600 nM | > 10 | 62% | EC50 [2]: > 10000 nM; Fu (Plasma): 0.02; %max [3]: 57%; EC50 [5]: 950 nM; EC50 [7]: > 10000 nM; EC50 [9]: > 10000 nM; Fu [10]: 0.16; Fu (Brain): 0.03; EC50 [11]: > 10000 nM
2 | Cc1sc2ncnc(N3CCC(Oc4ccc(F)nc4)CC3)c2c1C | 2.8 | 1800 nM | 0.34 | 68% | 
3 | Cc1sc2ncnc(N3CCC(C(=O)NCc4ccc(S(N)(=O)=O)cc4)CC3)c2c1C |  | 2300 nM |  | 67% | 
4 | Cc1sc2ncnc(N3CCC(Oc4ccc5c(c4)CCO5)CC3)c2c1C | 1.25 | 2300 nM | 1.38 | 74% | 
5 | Cc1ccc(OC2CCN(c3nc(C)nn4ccc(C)c34)CC2)cn1 | 1.42 | 1100 nM | 1.95 | 58% | 
6 | Cc1ccc(OC2CCN(c3cc(C)nc4ccc(F)cc34)CC2)cn1 | 21.4 | 690 nM | 18.2 | 64% | 
7 | Cc1ccc(OC2CCN(c3ncnc4sc(C)c(C)c34)CC2)cn1 | 1.16 | 600 nM | 0.74 | 65% | Drug metabolism [12]: metabolite_detected; Drug metabolism [13]: metabolite_detected
8 | Cc1sc2ncnc(N3CCC(C(=O)N4CCCc5cc(S(C)(=O)=O)ccc54)CC3)c2c1C |  | 960 nM |  | 69% | 
9 | Cc1sc2ncnc(N3CCC(C(=O)N4CCSCC4)CC3)c2c1C |  | 820 nM |  | 75% | 
10 | Cc1sc2ncnc(N3CCC(C(=O)N4CCOCC4)CC3)c2c1C |  | 1700 nM |  | 65% | 
11 | Cc1sc2ncnc(N3CCC(C(=O)Nc4ccc(S(C)(=O)=O)cc4)CC3)c2c1C |  | 850 nM |  | 62% | 
12 | CNC(=O)c1ccc(NC(=O)C2CCN(c3ncnc4sc(C)c(C)c34)CC2)cc1 |  | 570 nM |  | 70% | 
13 | Cc1sc2ncnc(N3CCC(Oc4ccc(Cl)nc4)CC3)c2c1C | 2.56 | 4300 nM | 0.17 | 64% | 
14 | Cc1ccc2ncnc(N3CCC(Oc4ccc(C)nc4)CC3)c2c1 | 0.94 | 1200 nM | 0.62 | 49% | 
15 | CCCCN(c1ccc(C)nc1)C1CCN(c2ncnc3sc(C)c(C)c23)CC1 |  |  |  |  | Kp at 0.25 h [1]: 0.2; fraction unbound [14]: > 0.1; Fu [10]: > 0.1; Activity [15]: 8.7%; IC50 [16]: 1500 nM
16 | Cc1sc2ncnc(N3CCC(C(=O)Nc4ccc(F)cc4Cl)CC3)c2c1C |  | 1600 nM |  | 55% | 
17 | Cc1sc2ncnc(N3CCC(C(=O)Nc4ccc(N5CCNC5=O)cc4)CC3)c2c1C |  | 6200 nM |  | 40% | 
18 | Cc1sc2ncnc(N3CCC(C(=O)N4CCCC4)CC3)c2c1C | 0.45 | 1100 nM | 0.45 | 68% | Fu (Plasma): 0.04; Fu [10]: 0.06
19 | Cc1sc2ncnc(N3CCC(C(=O)N4CCCC(F)(F)C4)CC3)c2c1C |  | 1900 nM |  | 60% | 
20 | Cc1ncc(OC2CCN(c3ncnc4sc(C)c(C)c34)CC2)cn1 | 1.77 | 4400 nM | 0.65 | 60% | 
21 | CCCN(c1ccc(C)nc1)C1CCN(c2ncnc3sc(C)c(C)c23)CC1 |  |  |  |  | Kp at 0.25 h [1]: 0.2; fraction unbound [14]: > 0.1; Fu [10]: > 0.1; Activity [15]: 9.3%; IC50 [16]: 2400 nM
22 | Cc1sc2ncnc(N3CCC(C(N)=O)CC3)c2c1C |  | > 10000 nM |  | 25% | 
23 | Cc1sc2ncnc(N3CCC(C(=O)Nc4ccc(C(N)=O)cc4)CC3)c2c1C |  | 390 nM |  | 56% | 
24 | Cc1sc2ncnc(N3CCC(C(=O)N4CC[C@H](F)C4)CC3)c2c1C | 0.17 | 970 nM | 0.12 | 79% | Fu (Plasma): 0.12; Fu [10]: 0.05
25 | Cc1sc2ncnc(N3CCC(C(=O)Nc4cc(Cl)ccc4Cl)CC3)c2c1C |  | 3800 nM |  | 69% | 
